According to US10858388B2, “Selective progesterone receptor modulator (SPRM) regimen” (BAYER PHARMA AKTIENGESELLSCHAFT, priority 2015, dated 2020):

Legend:
Type in all cases: in vivo, human
[1] = tested on: subjects with uterine fibroids; assay: Study 15788: endometrial thickness by transvaginal ultrasound, 3-month treatment (Example 3); conditions: 12 weeks
Method: A randomized, parallel-group, double-blind, placebo-controlled, multi-center study to assess efficacy of different doses of Compound 1 where primary efficacy variable is Endometrium thickness and secondary efficacy variable is PAEC in subjects with uterine fibroids over a 3-month treatment [1×12 weeks/84 days]
Doses: 0.5 mg, 1 mg, 2 mg, or 4 mg once daily
(§1) Route of administration: Oral
Duration of treatment: 1×12 weeks (84 days)
Women, 18 to 50 years old, with uterine fibroids documented by transvaginal or abdominal ultrasound at screening with at least 1 uterine fibroid with largest diameter 3 cm and heavy menstrual bleeding (HMB) 80 ml were eligible for enrolment in the study.
Eligible subjects were equally randomized to one of the treatment groups (Placebo, 0.5 mg, 1 mg, 2 mg, or 4 mg Compound 1). Treatment started during the first week of the menstrual cycle following randomization. The treatment period consisted of 12 weeks (84 days) of daily tablet intake.
Efficacy Measurement: • endometrial biopsies • cervical smear • transvaginal ultrasound TVU (endometrial thickness, ovaries)
Subjects that were detected with endometrial thickness (double layer)>18 mm (or suspicious bleeding pattern, e.g. continuous spotting, unusually heavy bleeding), were immediately evaluated by an additional endometrial biopsy.

[2] = tested on: subjects with uterine fibroids; assay: Study 17541: amenorrhea, 3-month vs 6-month treatment (Example 5)
Method: A randomized, parallel-group, double-blind, placebo-controlled, multi-center study to assess efficacy of a dose of 2 mg of Compound 1 where primary efficacy variable is Amenorrhea, in subjects with uterine fibroids over 3 months [1×12 weeks] and 6 months [2×12 weeks without treatment break].
Test drug: Compound 1 Doses: 2 mg, once daily
as §1
Duration of treatment: 2×12 weeks without treatment break
(§2) Women, 18 to 50 years old, with uterine fibroids documented by transvaginal or abdominal ultrasound at screening with at least 1 uterine fibroid with largest diameter 3 cm and Heavy Menstrual Bleeding (HMB) 80∃ ml were eligible for enrolment in the study.
Eligible subjects will be equally randomized to one of the treatment groups (Placebo, 2 mg of Compound 1). Treatment will start during the first week of the menstrual cycle following randomization. The treatment period will consist of 1×12 and 2×12 weeks (84 days) of daily tablet intake. • Treatment A1: 2 mg of Compound 1 (12 weeks), 2 mg of Compound 1 (12 weeks) without treatment break • Treatment A2: Placebo (12 weeks), 2 mg of Compound 1 (12 weeks).
Efficacy Measurement: • daily documentation of bleeding intensity (electronic diary or eDiary) • Menstrual Pictogram MP (electronic diary or eDiary).
Onset of amenorrhea is defined by the first day for which the menstrual blood loss (assessed by MP) for all subsequent 28-day periods up to the end of the treatment period is less than 2 ml.
The primary endpoint amenorrhea (no/yes) was based on the bleeding intensity recorded in the eDiary/Daily bleeding diary.

[3] = tested on: subjects with uterine fibroids; assay: Study 17541: endometrium thickness, 3-month vs 6-month treatment without break (Example 6); conditions: 2 mg once daily, 13 subjects, blinded, preliminary data, 3 or 6 months without break
Method: A randomized, parallel-group, double-blind, placebo-controlled, multi-center study to assess efficacy of a dose of 2 mg of Compound 1 where primary efficacy variable is Endometrium thickness, in subjects with uterine fibroids over 3-month vs 6-month with or without treatment break.
as §1
Duration of treatment: 2×12 weeks (A1) or 1×12 weeks (A2) without treatment break
as §2
Number of Women: 13 subjects having finished the treatment so far.
Eligible subjects were equally randomized to one of the treatment groups (Placebo, 2 mg of Compound 1). Treatment period was started during the first three days of the bleeding episode following randomization or ongoing at randomization. The treatment period will consist of 3 months (12 weeks) or 6 months [2×12 weeks (84 days)] of daily tablet intake without treatment break. • Treatment A1: 2 mg of Compound 1 (12 weeks), 2 mg of Compound 1 (12 weeks). • Treatment A2: Placebo (12 weeks), 2 mg of Compound 1 (12 weeks).
After the end of treatment period, subjects were followed up for 12 weeks. […]

[4] = tested on: subjects with uterine fibroids; assay: Study 17541: endometrium thickness, 2x3-month treatment with break period (Example 7); conditions: 2 mg once daily, 6 subjects, blinded, 2x12 weeks with 1 bleeding episode break or 1x12 weeks
Method: A randomized, parallel-group, double-blind, placebo-controlled, multi-center study to assess efficacy of a dose of 2 mg of Compound 1 where primary efficacy variable is Endometrial thickness, in subjects with uterine fibroids over 2×3-month with break period allowing bleeding episode.
as §1
Duration of treatment: 2×3-month [2×12 weeks]+one bleeding episode (B1) and 1×3-month [1×12 weeks] (B2) without treatment break
Women, 18 to 50 years old, with uterine fibroids documented by transvaginal or abdominal ultrasound at screening with at least 1 uterine fibroid with largest diameter 3.0 cm and heavy menstrual bleeding (HMB) […] were eligible for enrolment in the study.
Number of Women: 6 subjects that have finalized the treatment
Eligible subjects were equally randomized to one of the treatment groups (Placebo, 2 mg of Compound 1). Treatment period was started during the first three days of the bleeding episode following randomization or ongoing at randomization. The treatment period was consisting of daily tablet intake without treatment break. • Treatment B1: 2 mg of Compound 1 (12 weeks), 1 bleeding episode, 2 mg of Compound 1 (12 • weeks). • Treatment B2: Placebo (12 weeks), 1 bleeding episode, 2 mg of Compound 1 (12 weeks).
Efficacy Measurement: • endometrial biopsies, • cervical smear, • transvaginal ultrasound (TUV) (endometrial thickness, ovaries). […]

healthy subjects = assay: Amenorrhea in healthy subjects
From the text: Compound 1 is a potent Selective Progesterone Receptor Modulator (SPRM) and more particularly a competitive Progesterone Receptor (PR) antagonist creating alternatives for the treatment of Uterine Fibroids. […] Amenorrhea corresponds to the major objective of the treatment i.e. control of excessive uterine bleeding.

[5] = 6 months (2x12 weeks without treatment break)

## C[C@]12C[C@H](c3ccc(S(C)(=O)=O)cc3)C3=C4CCC(=O)C=C4CC[C@H]3[C@@H]1CC[C@@]2(O)C(F)(F)C(F)(F)F [Compound 1, (11β,17β)-17-Hydroxy-11-[4-(methylsulphonyl)phenyl]-17-(pentafluoroethyl)estra-4,9-dien-3-one]
[1]; 0.5 mg once daily oral
  Endometrial thickness at EoT, max: (27.0, 5.2) mm
  Subjects with maximum endometrium thickness >18 mm, (%): (3.4) %
[1]; 0.5 mg once daily oral, n = 57
  Median endometrial thickness at EoT: 9.0 mm
[1]; 1 mg once daily oral
  Endometrial thickness at EoT, max: (41.0, 7.0) mm
  Subjects with maximum endometrium thickness >18 mm, (%): (12.5) %
[1]; 1 mg once daily oral, n = 56
  Median endometrial thickness at EoT: 10.0 mm
[1]; 2 mg once daily oral
  Endometrial thickness at EoT, max: (27.0, 4.7) mm
  Subjects with maximum endometrium thickness >18 mm, (%): (3.5) %
[1]; 2 mg once daily oral, n = 58
  Median endometrial thickness at EoT: 7.5 mm
[1]; 4 mg once daily oral
  Endometrial thickness at EoT, max: (20.0, 4.9) mm
[1]; 4 mg once daily oral, n = 56
  Median endometrial thickness at EoT: 8.5 mm
[1]; 0.5-4 mg once daily
  Trend in endometrial thickness under treatment: no clear trend for an increase
[2]; 2 mg once daily, 2x12 weeks without treatment break, preliminary data
  Amenorrhea until 6 months of treatment: amenorrhea observed after 1×12 weeks is maintained
[2]; [5]
  Rate of subjects with endometrial thickness above 18 mm: not found to be increased
  Rates of adverse events with regard to ovarian cysts or bleeding: do not show increased rates of adverse events
[3]
  Endometrial size: ≤ 18 mm
  Treatment-emergent critical endometrial findings: no treatment-emergent critical endometrial findings occurred
[4]
  Endometrial size: ≤ 18 mm
  Treatment-emergent critical endometrial findings: no treatment-emergent critical endometrial findings occurred
Healthy subjects
  Amenorrhea: Amenorrhea was observed
